Reference: ChEMBL document CHEMBL5465560, “Selectivity Literature for EUbOPEN Chemogenomic Library” (2024)
Each block holds one compound with its values, some of them ahead of it.

How the values were obtained:
[1] = molecular target: Casein kinase I isoform delta (Homo sapiens, UniProt P48730); assay: Selectivity interaction (Millipore kinase profiler) EUB0000124b CSNK1D; conditions: at 10 µM
[2] = molecular target: Receptor-type tyrosine-protein kinase FLT3 (Homo sapiens) (UniProt P36888); assay: Selectivity interaction (Ambit KINOMEscan and KiNATiv profiling in Jurkat cells) EUB0000090b FLT3; format: cell-based; conditions: at 1 µM
[3] = molecular target: Non-receptor tyrosine-protein kinase TYK2 (Homo sapiens, UniProt P29597); assay: Selectivity interaction (Kinase panel (Carna Biosciences)) EUB0001542aTs TYK2; conditions: at 1 µM
[4] = molecular target: T1, Dual specificity protein kinase TTK (Homo sapiens) (UniProt P33981); assay: Selectivity interaction (Kinase panel (literature)) EUB0001199aCl TTK; conditions: at 1 µM
T1 sequence (whole entry): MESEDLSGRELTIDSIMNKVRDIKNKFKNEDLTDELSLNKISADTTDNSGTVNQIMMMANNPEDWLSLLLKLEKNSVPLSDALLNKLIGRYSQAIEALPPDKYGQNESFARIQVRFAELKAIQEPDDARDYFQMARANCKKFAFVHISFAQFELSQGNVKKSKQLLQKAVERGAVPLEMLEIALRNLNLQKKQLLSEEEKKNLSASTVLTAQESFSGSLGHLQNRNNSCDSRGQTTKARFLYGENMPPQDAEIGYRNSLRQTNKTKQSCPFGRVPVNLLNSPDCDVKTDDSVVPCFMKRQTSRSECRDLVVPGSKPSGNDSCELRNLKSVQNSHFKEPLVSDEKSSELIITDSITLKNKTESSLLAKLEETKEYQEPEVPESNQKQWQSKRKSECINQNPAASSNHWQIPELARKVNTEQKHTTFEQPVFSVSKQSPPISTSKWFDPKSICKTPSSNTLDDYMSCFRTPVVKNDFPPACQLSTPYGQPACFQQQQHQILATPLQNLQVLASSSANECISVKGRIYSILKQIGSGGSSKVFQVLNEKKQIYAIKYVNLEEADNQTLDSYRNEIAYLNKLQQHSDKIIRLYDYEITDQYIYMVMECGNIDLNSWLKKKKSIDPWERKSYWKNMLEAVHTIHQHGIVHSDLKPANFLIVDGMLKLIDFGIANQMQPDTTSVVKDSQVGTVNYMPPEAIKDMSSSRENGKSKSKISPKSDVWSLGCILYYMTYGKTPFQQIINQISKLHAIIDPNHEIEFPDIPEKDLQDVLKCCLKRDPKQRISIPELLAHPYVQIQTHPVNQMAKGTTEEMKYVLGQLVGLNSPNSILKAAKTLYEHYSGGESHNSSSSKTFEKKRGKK

[5] = molecular target: MAP kinase-activated protein kinase 2 (Homo sapiens, UniProt P49137); assay: Selectivity interaction (Kinase panel (literature)) EUB0001199aCl MAPKAPK2; conditions: at 1 µM
[6] = molecular target: Type-1 angiotensin II receptor (Homo sapiens) (UniProt P30556); assay: Selectivity interaction (Eurofins CEREP Diversity Profile (receptors and ion channels)) EUB0000279b AGTR1; conditions: at 10 µM
[7] = molecular target: Platelet-derived growth factor receptor beta (Homo sapiens, UniProt P09619); assay: Selectivity interaction (KinomeScan (DiscoverX)) EUB0000699a PDGFRB; conditions: at 10 µM
[8] = molecular target: Serine/threonine-protein kinase PLK3 (Homo sapiens, UniProt Q9H4B4); assay: Selectivity interaction (KinomeScan (DiscoverX)) EUB0000595a PLK3; conditions: at 10 µM
[9] = molecular target: Mitogen-activated protein kinase 1 (Homo sapiens, UniProt P28482); assay: Selectivity interaction (KinomeScan (DiscoverX)) EUB0001079a MAPK1; conditions: at 1 µM
[10] = molecular target: Maternal embryonic leucine zipper kinase (Homo sapiens) (UniProt Q14680); assay: Selectivity interaction (KinomeScan (DiscoverX)) EUB0001079a MELK; conditions: at 1 µM
[11] = molecular target: LIM domain kinase 1 (Homo sapiens) (UniProt P53667); assay: Selectivity interaction (KinomeScan (DiscoverX)) EUB0000655a LIMK1; conditions: at 10 µM
[12] = molecular target: T2, Serine/threonine-protein kinase LATS1 (Homo sapiens) (UniProt O95835); assay: Selectivity interaction (KinomeScan (DiscoverX)) EUB0001619a LATS1; conditions: at 1 µM
T2 sequence (whole entry): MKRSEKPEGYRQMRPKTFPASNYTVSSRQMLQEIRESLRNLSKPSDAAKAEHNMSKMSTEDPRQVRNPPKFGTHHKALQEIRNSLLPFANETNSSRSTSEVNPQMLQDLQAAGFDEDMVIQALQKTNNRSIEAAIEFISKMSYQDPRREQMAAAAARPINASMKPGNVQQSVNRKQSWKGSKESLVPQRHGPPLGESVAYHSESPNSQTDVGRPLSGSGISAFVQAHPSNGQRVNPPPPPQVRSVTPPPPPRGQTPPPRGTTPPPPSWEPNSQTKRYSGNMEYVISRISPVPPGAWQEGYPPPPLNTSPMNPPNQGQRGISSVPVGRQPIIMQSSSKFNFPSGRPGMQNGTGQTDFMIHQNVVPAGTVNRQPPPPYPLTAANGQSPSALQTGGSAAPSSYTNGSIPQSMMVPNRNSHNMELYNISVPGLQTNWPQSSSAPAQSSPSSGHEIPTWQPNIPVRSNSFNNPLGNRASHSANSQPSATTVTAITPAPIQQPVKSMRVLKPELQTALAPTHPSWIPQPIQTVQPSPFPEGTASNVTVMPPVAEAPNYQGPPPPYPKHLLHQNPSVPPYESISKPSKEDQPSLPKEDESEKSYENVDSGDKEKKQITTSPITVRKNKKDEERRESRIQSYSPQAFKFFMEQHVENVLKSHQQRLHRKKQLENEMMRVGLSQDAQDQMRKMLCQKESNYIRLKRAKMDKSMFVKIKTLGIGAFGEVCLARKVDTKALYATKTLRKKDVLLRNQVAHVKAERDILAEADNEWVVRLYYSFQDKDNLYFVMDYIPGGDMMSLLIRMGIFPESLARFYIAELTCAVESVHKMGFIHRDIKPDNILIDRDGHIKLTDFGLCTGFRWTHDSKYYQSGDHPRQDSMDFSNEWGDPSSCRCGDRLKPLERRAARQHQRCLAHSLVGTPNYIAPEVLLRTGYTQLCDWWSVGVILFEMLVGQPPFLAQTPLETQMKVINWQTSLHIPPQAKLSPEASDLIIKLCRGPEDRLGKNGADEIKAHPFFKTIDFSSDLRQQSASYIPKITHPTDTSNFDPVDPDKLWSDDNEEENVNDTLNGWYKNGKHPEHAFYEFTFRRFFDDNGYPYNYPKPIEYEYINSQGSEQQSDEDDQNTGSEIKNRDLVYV

[13] = system: Proto-oncogene tyrosine-protein kinase receptor Ret (Homo sapiens), P07949 [V804L]; assay: Selectivity interaction (KinomeScan (DiscoverX)) EUB0000607a RET; conditions: at 10 µM
[14] = molecular target: Phosphatidylinositol 4,5-bisphosphate 3-kinase catalytic subunit gamma isoform (Homo sapiens) (UniProt P48736); assay: Selectivity interaction (KinomeScan (DiscoverX)) EUB0000666a PIK3CG; conditions: at 10 µM
[15] = molecular target: Dual specificity mitogen-activated protein kinase kinase 1 (Homo sapiens, UniProt Q02750); assay: Selectivity interaction (Kinase panel (DSF assay)) EUB0001558a MAP2K1
Chain of Dual specificity mitogen-activated protein kinase kinase 1 (Q02750 whole entry): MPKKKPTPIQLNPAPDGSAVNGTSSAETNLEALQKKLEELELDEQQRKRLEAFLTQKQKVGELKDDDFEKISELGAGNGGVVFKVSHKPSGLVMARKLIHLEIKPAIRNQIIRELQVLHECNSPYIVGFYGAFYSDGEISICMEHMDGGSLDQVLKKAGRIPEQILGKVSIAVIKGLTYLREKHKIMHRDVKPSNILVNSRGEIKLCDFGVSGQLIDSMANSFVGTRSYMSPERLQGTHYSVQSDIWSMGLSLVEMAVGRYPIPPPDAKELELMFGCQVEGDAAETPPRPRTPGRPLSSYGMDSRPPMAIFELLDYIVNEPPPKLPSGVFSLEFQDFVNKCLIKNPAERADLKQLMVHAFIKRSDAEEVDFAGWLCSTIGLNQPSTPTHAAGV

Chain of Receptor-type tyrosine-protein kinase FLT3 (Homo sapiens) (P36888 whole entry): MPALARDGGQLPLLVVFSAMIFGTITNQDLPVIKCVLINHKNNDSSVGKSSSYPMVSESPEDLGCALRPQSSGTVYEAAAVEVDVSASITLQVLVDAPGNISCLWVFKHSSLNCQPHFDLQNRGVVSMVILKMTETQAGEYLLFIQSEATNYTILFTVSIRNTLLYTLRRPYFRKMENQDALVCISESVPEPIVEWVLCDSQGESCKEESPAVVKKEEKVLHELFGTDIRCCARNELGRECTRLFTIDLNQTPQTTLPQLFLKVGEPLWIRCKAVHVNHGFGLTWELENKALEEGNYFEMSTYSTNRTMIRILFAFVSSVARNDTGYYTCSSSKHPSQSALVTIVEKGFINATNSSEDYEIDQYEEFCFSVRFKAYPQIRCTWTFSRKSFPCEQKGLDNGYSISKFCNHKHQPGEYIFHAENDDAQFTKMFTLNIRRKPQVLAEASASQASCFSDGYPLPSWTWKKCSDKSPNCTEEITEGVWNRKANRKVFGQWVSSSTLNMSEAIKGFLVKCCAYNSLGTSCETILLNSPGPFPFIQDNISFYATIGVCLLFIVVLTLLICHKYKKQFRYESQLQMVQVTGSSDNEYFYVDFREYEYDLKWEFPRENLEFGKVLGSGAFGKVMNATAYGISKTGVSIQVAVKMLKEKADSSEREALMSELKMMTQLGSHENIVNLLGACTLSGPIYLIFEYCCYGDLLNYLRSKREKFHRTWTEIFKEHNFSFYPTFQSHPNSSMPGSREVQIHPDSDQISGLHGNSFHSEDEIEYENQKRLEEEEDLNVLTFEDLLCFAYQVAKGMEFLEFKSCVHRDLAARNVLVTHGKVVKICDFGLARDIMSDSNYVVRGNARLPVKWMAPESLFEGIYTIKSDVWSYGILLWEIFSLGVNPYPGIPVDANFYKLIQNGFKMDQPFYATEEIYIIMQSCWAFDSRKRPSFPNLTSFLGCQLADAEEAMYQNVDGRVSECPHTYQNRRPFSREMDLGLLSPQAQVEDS
Chain of Platelet-derived growth factor receptor beta (P09619 whole entry): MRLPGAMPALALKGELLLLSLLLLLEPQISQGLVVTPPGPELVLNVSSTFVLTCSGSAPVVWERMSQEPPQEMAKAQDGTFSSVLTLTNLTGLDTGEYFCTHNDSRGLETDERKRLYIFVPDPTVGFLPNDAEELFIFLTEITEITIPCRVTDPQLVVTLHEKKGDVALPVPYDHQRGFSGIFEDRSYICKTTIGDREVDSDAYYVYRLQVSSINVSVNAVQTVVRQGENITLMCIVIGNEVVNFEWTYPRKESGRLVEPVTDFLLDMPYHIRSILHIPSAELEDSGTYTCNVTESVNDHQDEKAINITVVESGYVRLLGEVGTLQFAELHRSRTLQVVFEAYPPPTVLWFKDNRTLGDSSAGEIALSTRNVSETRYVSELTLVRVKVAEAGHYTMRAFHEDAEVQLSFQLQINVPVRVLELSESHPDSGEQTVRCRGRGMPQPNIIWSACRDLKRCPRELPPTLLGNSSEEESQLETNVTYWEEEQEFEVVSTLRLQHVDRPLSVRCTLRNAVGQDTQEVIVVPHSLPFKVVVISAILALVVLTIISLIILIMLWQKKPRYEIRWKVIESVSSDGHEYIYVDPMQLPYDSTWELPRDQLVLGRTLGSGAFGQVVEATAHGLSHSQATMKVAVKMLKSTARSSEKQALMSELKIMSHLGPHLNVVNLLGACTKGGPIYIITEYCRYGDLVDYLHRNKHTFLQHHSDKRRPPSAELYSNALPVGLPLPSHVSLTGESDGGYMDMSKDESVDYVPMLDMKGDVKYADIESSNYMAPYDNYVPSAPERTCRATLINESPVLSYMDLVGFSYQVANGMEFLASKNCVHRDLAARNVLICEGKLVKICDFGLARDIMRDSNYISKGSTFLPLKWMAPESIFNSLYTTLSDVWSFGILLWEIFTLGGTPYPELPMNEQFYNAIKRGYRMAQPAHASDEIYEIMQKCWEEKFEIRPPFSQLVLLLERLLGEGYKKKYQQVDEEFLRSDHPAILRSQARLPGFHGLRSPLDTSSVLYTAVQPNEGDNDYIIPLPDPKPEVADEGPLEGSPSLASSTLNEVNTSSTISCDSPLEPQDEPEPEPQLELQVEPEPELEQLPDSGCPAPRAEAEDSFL
Chain of Proto-oncogene tyrosine-protein kinase receptor Ret (Homo sapiens), P07949 [V804L] (P07949 whole entry V804L, canonical isoform): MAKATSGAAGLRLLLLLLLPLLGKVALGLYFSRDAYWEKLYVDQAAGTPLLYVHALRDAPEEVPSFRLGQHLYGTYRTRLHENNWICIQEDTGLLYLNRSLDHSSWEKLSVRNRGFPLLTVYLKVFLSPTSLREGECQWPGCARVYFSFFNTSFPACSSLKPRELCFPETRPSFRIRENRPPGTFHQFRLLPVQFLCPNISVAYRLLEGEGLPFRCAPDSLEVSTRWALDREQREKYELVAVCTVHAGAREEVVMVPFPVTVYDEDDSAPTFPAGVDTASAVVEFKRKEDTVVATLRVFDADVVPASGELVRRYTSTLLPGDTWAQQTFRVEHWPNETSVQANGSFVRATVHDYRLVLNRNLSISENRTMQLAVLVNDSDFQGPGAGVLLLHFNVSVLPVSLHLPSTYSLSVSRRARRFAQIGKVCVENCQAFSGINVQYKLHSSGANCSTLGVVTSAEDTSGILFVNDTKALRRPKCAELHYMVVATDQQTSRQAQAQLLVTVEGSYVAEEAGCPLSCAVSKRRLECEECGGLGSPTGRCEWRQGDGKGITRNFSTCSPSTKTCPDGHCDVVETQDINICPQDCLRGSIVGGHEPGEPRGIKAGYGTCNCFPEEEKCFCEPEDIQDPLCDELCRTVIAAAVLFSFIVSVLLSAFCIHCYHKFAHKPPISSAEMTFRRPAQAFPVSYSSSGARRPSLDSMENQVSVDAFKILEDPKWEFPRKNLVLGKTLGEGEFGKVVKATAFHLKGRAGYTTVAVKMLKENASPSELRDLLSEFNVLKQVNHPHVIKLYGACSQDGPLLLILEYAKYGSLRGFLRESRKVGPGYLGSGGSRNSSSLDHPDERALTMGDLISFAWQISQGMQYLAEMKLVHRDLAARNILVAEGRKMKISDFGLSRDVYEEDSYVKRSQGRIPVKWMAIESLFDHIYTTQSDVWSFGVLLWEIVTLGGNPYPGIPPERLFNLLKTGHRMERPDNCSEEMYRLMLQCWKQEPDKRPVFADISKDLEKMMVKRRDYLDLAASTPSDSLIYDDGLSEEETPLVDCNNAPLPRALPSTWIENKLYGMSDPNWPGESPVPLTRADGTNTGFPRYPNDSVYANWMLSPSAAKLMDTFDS
Chain of Type-1 angiotensin II receptor (Homo sapiens) (P30556 whole entry): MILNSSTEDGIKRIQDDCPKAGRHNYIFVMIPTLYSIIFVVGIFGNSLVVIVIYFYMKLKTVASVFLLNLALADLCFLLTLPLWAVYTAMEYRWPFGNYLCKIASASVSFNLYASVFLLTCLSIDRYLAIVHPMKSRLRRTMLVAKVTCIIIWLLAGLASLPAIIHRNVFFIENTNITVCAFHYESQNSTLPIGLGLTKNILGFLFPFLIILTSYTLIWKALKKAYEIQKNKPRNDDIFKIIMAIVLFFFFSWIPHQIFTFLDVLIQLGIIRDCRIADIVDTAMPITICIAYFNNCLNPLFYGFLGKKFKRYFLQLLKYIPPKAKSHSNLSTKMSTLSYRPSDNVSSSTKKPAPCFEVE
Chain of Serine/threonine-protein kinase PLK3 (Q9H4B4 whole entry, looked up): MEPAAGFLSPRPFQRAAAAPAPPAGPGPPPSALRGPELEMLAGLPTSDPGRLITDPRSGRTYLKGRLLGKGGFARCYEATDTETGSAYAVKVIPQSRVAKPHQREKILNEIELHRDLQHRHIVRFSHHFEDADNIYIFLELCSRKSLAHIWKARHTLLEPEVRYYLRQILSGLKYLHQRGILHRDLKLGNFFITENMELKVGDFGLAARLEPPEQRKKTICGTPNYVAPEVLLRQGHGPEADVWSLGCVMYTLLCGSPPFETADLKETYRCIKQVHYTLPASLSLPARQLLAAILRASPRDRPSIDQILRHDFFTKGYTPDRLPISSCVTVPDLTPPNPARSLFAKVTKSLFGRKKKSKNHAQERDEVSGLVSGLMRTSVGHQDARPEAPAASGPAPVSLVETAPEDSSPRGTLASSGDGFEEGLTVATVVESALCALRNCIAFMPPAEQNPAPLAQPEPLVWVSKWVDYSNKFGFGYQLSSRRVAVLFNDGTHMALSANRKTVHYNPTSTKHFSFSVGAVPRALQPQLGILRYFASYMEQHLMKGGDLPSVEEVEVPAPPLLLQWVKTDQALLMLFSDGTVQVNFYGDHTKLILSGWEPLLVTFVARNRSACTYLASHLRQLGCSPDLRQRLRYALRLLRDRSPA
Chain of MAP kinase-activated protein kinase 2 (P49137 whole entry, looked up): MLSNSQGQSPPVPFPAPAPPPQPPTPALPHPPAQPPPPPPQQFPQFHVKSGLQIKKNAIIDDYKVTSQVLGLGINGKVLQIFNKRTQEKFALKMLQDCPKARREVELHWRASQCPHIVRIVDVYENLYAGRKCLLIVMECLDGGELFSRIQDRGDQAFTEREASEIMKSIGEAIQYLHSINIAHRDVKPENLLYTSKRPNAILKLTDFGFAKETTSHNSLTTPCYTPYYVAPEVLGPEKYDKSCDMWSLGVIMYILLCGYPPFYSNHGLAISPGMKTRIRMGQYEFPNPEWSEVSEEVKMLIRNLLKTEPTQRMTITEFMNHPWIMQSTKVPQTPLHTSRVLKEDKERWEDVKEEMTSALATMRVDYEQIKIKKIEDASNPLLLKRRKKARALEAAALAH

% of control [1]: 105%
SMILES: CC(=O)Nc1cccc(-n2c(=O)n(C3CC3)c(=O)c3c(Nc4ccc(I)cc4F)n(C)c(=O)c(C)c32)c1

SMILES: CN(C)C/C=C/C(=O)Nc1ccc(C(=O)N2CCCC(Nc3ncc(Cl)c(-c4c[nH]c5ccccc45)n3)C2)cc1 (stereo not given)
% of control [2]: 95%

% of inhibition [3]: 101%
SMILES: Cn1cc(Nc2nccc(N3CC4CCC(C3)N4C(=O)[C@@H]3CC3(F)F)n2)cn1

% of inhibition [4]: -3%
% of inhibition [5]: 3%
SMILES: CN1Cc2nccc(-c3cn(C)nc3-c3ccc(F)cc3)c2C1=O

% of control [6]: 91%
SMILES: CC(=O)c1cc(-c2ccccc2OCC2CC2)c2ncccn12

% of control [7]: 38%
SMILES: CCN(CC)CCCCNc1ncc2cc(-c3cc(OC)cc(OC)c3)c(NC(=O)NC(C)(C)C)nc2n1

SMILES: COCC(=O)NC/C=C/c1ccc2ncnc(Nc3ccc(Oc4ccc(C)nc4)c(C)c3)c2c1 [CP-724714]
% of control [8]: 99%

SMILES: Nc1cnc(N2CCc3cc(S(=O)(=O)Nc4c(F)cc(Cl)cc4F)cc(N4CCCC4=O)c32)nc1 [TP-020n]
% of control [9]: 100%
% of control [10]: 90%

SMILES: CN(C)CCOc1ccc(-c2nc(-c3ccncc3)c(-c3ccc4c(c3)CC/C4=N\O)[nH]2)cc1
% of control [11]: 100%

SMILES: N#Cc1cccc(-c2c[nH]c3ncnc(N4CCOCC4)c23)c1
% of control [12]: 100%

SMILES: CNC(=O)Nc1ccc(-c2nc(N3CC4CCC(C3)O4)c3cnn(C4CCC5(CC4)OCCO5)c3n2)cc1
% of control [13]: 85%

SMILES: O=C(NOC[C@H](O)CO)c1ccc(F)c(F)c1Nc1ccc(I)cc1F
% of control [14]: 88%

SMILES: CC(C)(O)[C@H](F)CN1Cc2cc(NC(=O)c3cnn4cccnc34)c(N3CCOCC3)cc2C1=O
dTM [15]: 1.3 K
